Measurements taken from the supplement of paper PMC10627819.

System: S. pneumoniae D39V
Experiment: fitness (endpoint OD595 vs no drug) (fraction); higher = more growth
Procedure, shortened: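 At 37 °C, bacteria in TSB, LB Lennox or CY were grown in 384-well plates from a starting OD595 of 0.01. OD595 was measured every 30 min for 14 h, with the first reading used as background. Fitness is the optical density at the switch to stationary phase as a fraction of the robust mean of no-drug control wells, capped at 1.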
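Note: OD595 on entry to stationary phase over no-drug wells; at most 1.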

CC(=O)Oc1ccccc1C(=O)O [Acetylsalicylic acid] + C/C(=C\C(=O)OCCCCCCCCC(=O)O)C[C@@H]1OC[C@H](C[C@@H]2O[C@H]2[C@@H](C)[C@H](C)O)[C@@H](O)[C@H]1O [Pseudomonic acid]
fitness
Conditions | first compound 250 µg/mL | first compound 500 µg/mL | first compound 1000 µg/mL
partner 0.03 µg/mL | 0.933 | 0.9 | 0.825
partner 0.06 µg/mL | 0.822 | 0.723 | –
partner 0.12 µg/mL | 0.542 | 0.488 | 0.383

CC(=O)Oc1ccccc1C(=O)O [Acetylsalicylic acid] + CC1=C(C(=O)O)N2C(=O)[C@@H](NC(=O)[C@H](N)c3ccccc3)[C@H]2SC1 [Cephalexin]
fitness, one replicate
Conditions | first compound 250 µg/mL | first compound 500 µg/mL | first compound 1000 µg/mL
partner 0.125 µg/mL | 0.955 | 0.996 | 0.935
partner 0.25 µg/mL | 0.931 | 0.961 | 0.913
partner 0.5 µg/mL | 0.923 | 0.932 | 0.92

fitness
Conditions | first compound 250 µg/mL | first compound 500 µg/mL | first compound 1000 µg/mL
partner 1 µg/mL | 0.902 | 0.89 | 0.727
partner 2 µg/mL | 0.611 | – | 0.391
partner 4 µg/mL | 0.0549 | 0.0473 | 0.0319

CC(=O)Oc1ccccc1C(=O)O [Acetylsalicylic acid] + CC(C1CCC(C(O1)OC2C(CC(C(C2O)OC3C(C(C(CO3)(C)O)NC)O)N)N)N)NC [Gentamicin]
fitness, main component drawn
Conditions | partner 2 µg/mL | partner 4 µg/mL | partner 8 µg/mL
first compound 250 µg/mL | 0.955 | 0.967 | 0.93
first compound 500 µg/mL | 0.972 | 0.947 | 0.917

CC(=O)Oc1ccccc1C(=O)O [Acetylsalicylic acid] + CCC(C)C1C(=O)NC(=C)C(=O)NC(C(=O)NC(CSCC(C(=O)N1)NC(=O)/C(=C/C)/NC(=O)C(C(C)CC)N)C(=O)NC2C(SCC(NC(=O)CNC(=O)C3CCCN3C2=O)C(=O)NC(CCCCN)C(=O)NC4C(SCC(NC(=O)CNC(=O)C(NC(=O)C(NC(=O)C(NC(=O)CNC4=O)C)CC(C)C)CCSC)C(=O)NC(CC(=O)N)C(=O)NC(CCSC)C(=O)NC(CCCCN)C(=O)NC5C(SCC6C(=O)NC(C(=O)NC(CSC(C(C(=O)N6)NC(=O)C(NC5=O)C)C)C(=O)NC(CO)C(=O)NC(C(C)CC)C(=O)NC(CC7=CN=CN7)C(=O)NC(C(C)C)C(=O)NC(=C)C(=O)NC(CCCCN)C(=O)O)CC8=CN=CN8)C)C)C)CC(C)C [Nisin]
fitness, main component drawn
Conditions | partner 0.4275 µg/mL | partner 0.855 µg/mL | partner 1.6 µg/mL | partner 1.71 µg/mL | partner 3.2 µg/mL | partner 6.4 µg/mL
first compound 250 µg/mL | 0.994 | 0.711 | 0.0198 | 0.0841 | 0.0317 | 0.0271
first compound 500 µg/mL | 0.974 | 0.715 | 0.0324 | 0.114 | 0.0227 | 0.0184
first compound 1000 µg/mL | – | 0.526 | 0.0339 | 0.0989 | 0.0138 | 0.0153

CC(=O)Oc1ccccc1C(=O)O [Acetylsalicylic acid] + CC[C@H]1OC(=O)[C@H](C)[C@@H](O[C@H]2C[C@@](C)(OC)[C@@H](O)[C@H](C)O2)[C@H](C)[C@@H](O[C@@H]2O[C@H](C)C[C@H](N(C)C)[C@H]2O)[C@](C)(OC)C[C@@H](C)C(=O)[C@H](C)[C@@H](O)[C@]1(C)O [Clarithromycin]
fitness, one replicate
Conditions | first compound 250 µg/mL | first compound 500 µg/mL | first compound 1000 µg/mL
partner 0.007812 µg/mL | 0.824 | 0.781 | 0.281
partner 0.01562 µg/mL | 0.783 | 0.763 | 0.193
partner 0.03125 µg/mL | 0.621 | 0.627 | 0.257

fitness
Conditions | partner 0.0625 µg/mL | partner 0.07 µg/mL | partner 0.125 µg/mL | partner 0.14 µg/mL | partner 0.25 µg/mL | partner 0.28 µg/mL
first compound 250 µg/mL | 0.642 | 0.195 | 0.369 | 0.137 | 0.133 | 0.104
first compound 500 µg/mL | 0.586 | 0.228 | 0.359 | 0.167 | 0.147 | 0.108
first compound 1000 µg/mL | 0.405 | 0.155 | 0.148 | 0.139 | 0.0751 | 0.0935

CC(=O)Oc1ccccc1C(=O)O [Acetylsalicylic acid] + CN(C)C(=O)C(CCN1CCC(O)(c2ccc(Cl)cc2)CC1)(c1ccccc1)c1ccccc1 [Loperamide]
fitness
Conditions | partner 17.14 µg/mL | partner 20 µg/mL | partner 34.28 µg/mL | partner 40 µg/mL | partner 80 µg/mL
first compound 250 µg/mL | 0.987 | 0.989 | 0.945 | 0.982 | ≥ 1
first compound 500 µg/mL | 0.972 | ≥ 1 | 0.981 | ≥ 1 | ≥ 1
first compound 1000 µg/mL | 0.859 | 0.987 | 0.879 | 0.967 | 0.937

partner 68.57 µg/mL, one replicate
Conditions | fitness
first compound 250 µg/mL | 0.931
first compound 500 µg/mL | 0.927
first compound 1000 µg/mL | ≥ 1

CC(=O)Oc1ccccc1C(=O)O [Acetylsalicylic acid] + CN(C)c1cc(NC(=O)CNC(C)(C)C)c(O)c2c1C[C@H]1C[C@H]3[C@H](N(C)C)C(O)=C(C(N)=O)C(=O)[C@@]3(O)C(O)=C1C2=O [Tigecycline]
fitness
Conditions | partner 0.325 µg/mL | partner 0.65 µg/mL | partner 1.3 µg/mL | partner 2.6 µg/mL
first compound 250 µg/mL | 0.934 | 0.968 | 1 | 0.932
first compound 500 µg/mL | 0.904 | 0.985 | 0.949 | 0.95
first compound 1000 µg/mL | 0.797 | 0.763 | 0.803 | 0.718

CC(=O)Oc1ccccc1C(=O)O [Acetylsalicylic acid] + CN[C@@H]1[C@H](O[C@H]2[C@H](O[C@H]3[C@H](O)[C@@H](O)[C@H](N=C(N)N)[C@@H](O)[C@@H]3N=C(N)N)O[C@@H](C)[C@]2(O)C=O)O[C@@H](CO)[C@H](O)[C@H]1O [Streptomycin]
fitness
Conditions | first compound 250 µg/mL | first compound 500 µg/mL | first compound 1000 µg/mL
partner 2 µg/mL | 0.954 | 0.928 | 0.806
partner 4 µg/mL | 0.977 | 0.892 | –
partner 8 µg/mL | 0.929 | 0.869 | –

partner 16 µg/mL, one replicate
Conditions | fitness
first compound 250 µg/mL | 0.772
first compound 500 µg/mL | 0.605
first compound 1000 µg/mL | 0.159

CC(=O)Oc1ccccc1C(=O)O [Acetylsalicylic acid] + CO[C@H]1/C=C/O[C@@]2(C)Oc3c(C)c(O)c4c(O)c(c(/C=N/N5CCN(C)CC5)c(O)c4c3C2=O)NC(=O)/C(C)=C\C=C\[C@H](C)[C@H](O)[C@@H](C)[C@@H](O)[C@@H](C)[C@H](OC(C)=O)[C@@H]1C [Rifampicin]
fitness
Conditions | first compound 250 µg/mL | first compound 500 µg/mL | first compound 1000 µg/mL
partner 0.025 µg/mL | 0.932 | 0.913 | 0.81
partner 0.05 µg/mL | – | 0.899 | 0.668
partner 0.1 µg/mL | 0.476 | 0.37 | –

partner 0.2 µg/mL, one replicate
Conditions | fitness
first compound 250 µg/mL | 0
first compound 500 µg/mL | 0
first compound 1000 µg/mL | 0

CC(=O)Oc1ccccc1C(=O)O [Acetylsalicylic acid] + C[C@@H](O)[C@H]1C(=O)N2C(C(=O)O)=C(SCCNC=N)C[C@H]12 [Imipenem]
fitness
Conditions | partner 0.005 µg/mL | partner 0.0065 µg/mL | partner 0.01 µg/mL | partner 0.013 µg/mL | partner 0.02 µg/mL | partner 0.026 µg/mL
first compound 250 µg/mL | 0.948 | 0.983 | 0.898 | 0.953 | 0.912 | 0.914
first compound 500 µg/mL | 0.956 | 0.969 | 0.954 | 0.993 | 0.955 | 0.912
first compound 1000 µg/mL | 0.856 | 0.868 | 0.85 | 0.943 | 0.813 | 0.907

CC(=O)Oc1ccccc1C(=O)O [Acetylsalicylic acid] + C[C@H]1COc2c(N3CCN(C)CC3)c(F)cc3c(=O)c(C(=O)O)cn1c23 [Levofloxacin]
fitness
Conditions | partner 0.1725 µg/mL | partner 0.2 µg/mL | partner 0.345 µg/mL | partner 0.4 µg/mL | partner 0.69 µg/mL | partner 0.8 µg/mL
first compound 250 µg/mL | 0.992 | 0.92 | 0.954 | 0.868 | 0.671 | 0.673
first compound 500 µg/mL | ≥ 1 | 0.929 | 0.9 | 0.898 | 0.692 | 0.653
first compound 1000 µg/mL | 0.95 | 0.881 | 0.938 | 0.734 | 0.716 | 0.513

CC(=O)Oc1ccccc1C(=O)O [Acetylsalicylic acid] + C[C@H]1c2cccc(O)c2C(=O)C2=C(O)[C@]3(O)C(=O)C(C(N)=O)=C(O)[C@@H](N(C)C)[C@@H]3[C@@H](O)[C@@H]21 [Doxycycline]
fitness, one replicate
Conditions | first compound 250 µg/mL | first compound 500 µg/mL | first compound 1000 µg/mL
partner 0.003875 µg/mL | ≥ 1 | ≥ 1 | 0.95
partner 0.00775 µg/mL | 0.998 | ≥ 1 | ≥ 1

fitness
Conditions | first compound 250 µg/mL | first compound 500 µg/mL | first compound 1000 µg/mL
partner 0.0155 µg/mL | 0.907 | 0.941 | 0.842
partner 0.031 µg/mL | 0.825 | 0.822 | 0.668

CC(=O)Oc1ccccc1C(=O)O [Acetylsalicylic acid] + Clc1ccc(COC(Cn2ccnc2)c2ccc(Cl)cc2Cl)c(Cl)c1 [Miconazole]
fitness
Conditions | partner 1.073 µg/mL | partner 1.25 µg/mL | partner 2.145 µg/mL | partner 2.5 µg/mL | partner 4.29 µg/mL | partner 5 µg/mL
first compound 250 µg/mL | ≥ 1 | 0.902 | 0.943 | 0.863 | 0.9 | 0.937
first compound 500 µg/mL | ≥ 1 | 0.816 | 0.918 | 0.772 | 0.858 | 0.844
first compound 1000 µg/mL | ≥ 1 | 0.643 | 0.957 | 0.589 | 0.875 | 0.656

CC(=O)Oc1ccccc1C(=O)O [Acetylsalicylic acid] + O=C1CN(/N=C/c2ccc([N+](=O)[O-])o2)C(=O)N1 [Nitrofurantoin]
fitness
Conditions | partner 1.285 µg/mL | partner 2 µg/mL | partner 2.57 µg/mL | partner 4 µg/mL | partner 8 µg/mL
first compound 250 µg/mL | 0.979 | 0.9 | 0.973 | 0.91 | 0.813
first compound 500 µg/mL | 0.974 | 0.835 | 0.947 | 0.786 | 0.742
first compound 1000 µg/mL | 0.931 | 0.513 | 0.93 | 0.446 | 0.467

partner 5.14 µg/mL, one replicate
Conditions | fitness
first compound 250 µg/mL | 0.93
first compound 500 µg/mL | 0.888
first compound 1000 µg/mL | 0.813

CC(=O)Oc1ccccc1C(=O)O [Acetylsalicylic acid] + O=C(O)[C@H]1/C(=C/CO)O[C@@H]2CC(=O)N21 [Clavulanic acid]
fitness
Conditions | first compound 250 µg/mL | first compound 500 µg/mL | first compound 1000 µg/mL
partner 0.5 µg/mL | 0.954 | 0.967 | 0.696
partner 1 µg/mL | 0.902 | 0.902 | 0.696
partner 2 µg/mL | 0.884 | 0.819 | 0.596
